Biological target: T1, pectocin M1 (PcaM1) (Pectobacterium carotovorum, UniProt C6DJ69)
T1 construct: gene PC1_2303; full-length, C-terminal Arg-Ser-His6 tag kept, initiator Met lost; expressed in E. coli C43(DE3) from pMLD365; monomer; theoretical mass 30,401 Da with tag (observed m/z 30,266); plant-like ferredoxin domain plus cytotoxic domain
T1 sequence (C6DJ69 2-268): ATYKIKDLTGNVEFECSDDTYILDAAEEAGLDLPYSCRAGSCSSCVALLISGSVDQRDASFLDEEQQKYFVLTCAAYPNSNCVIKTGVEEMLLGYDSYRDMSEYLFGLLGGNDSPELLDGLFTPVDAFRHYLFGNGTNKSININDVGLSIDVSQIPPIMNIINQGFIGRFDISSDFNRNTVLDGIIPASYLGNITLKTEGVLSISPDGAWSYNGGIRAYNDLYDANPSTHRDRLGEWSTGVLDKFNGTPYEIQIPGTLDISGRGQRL
Experiment: radiolabelled lipid II hydrolysis, TLC with radioactivity scanner
Format: biochemical
Details: labelled compound ([14C] in GlcNAc moiety); 100 mM Tris-HCl pH 7.5, 20 mM MgCl2, 150 mM NaCl, 10 mM 2-mercaptoethanol, 0.2% DDM, 37 °C, lipid II 6–100 µM

## CC(=O)N[C@H]1[C@H](O[C@H]2[C@H](O[C@H](C)C(=O)N[C@@H](C)C(=O)N[C@H](CCC(=O)N[C@@H](CCC[C@@H](N)C(=O)O)C(=O)N[C@H](C)C(=O)N[C@H](C)C(=O)O)C(=O)O)[C@@H](NC(C)=O)[C@@H](OP(=O)(O)OP(=O)(O)OC/C=C(/C)CC/C=C(/C)CC/C=C(/C)CC/C=C(/C)CC/C=C(/C)CC/C=C(/C)CC/C=C(/C)CC/C=C(/C)CC/C=C(\C)CC/C=C(\C)CCC=C(C)C)O[C@@H]2CO)O[C@H](CO)[C@@H](O)[C@@H]1O [lipid II, C55-PP-MurNAc(L-Ala-γ-D-Glu-meso-A2pm-D-Ala-D-Ala)-GlcNAc]
  Km: 55 µM
